# Laboratory results reported in patent US20120277238A1, “PHARMACEUTICAL COMPOSITION CONTAINING FUSED HETERO-RING DERIVATIVE” (Shionogi & Co., Ltd, priority 2009, published 2012).
# System: not listed separately
# Assay: Metabolism stability test (human)
# Type: in vitro ADME
# Conditions: test compound concentration 0.5 μmol/L, 30 minutes, 37° C.
# Protocol: Using commercially available pooled human hepatic microsomes, prepared in accordance with Japanese journal of pharmacology, 33 (1), p. 41-56, February 1983, a test compound was reacted for a constant time, a remaining rate was calculated by comparing a reacted sample and an unreacted sample, thereby, a degree of metabolism in liver was assessed.
# A reaction was performed (oxidative reaction) at 37° C. for 0 minute or 30 minutes in the presence of 1 mmol/L NADPH in 0.2 mL of a buffer (50 mmol/L tris-HCl pH 7.4, 150 mmol/L potassium chloride, 10 mmol/L magnesium chloride) containing 0.5 mg protein/mL of human liver microsomes. After the reaction, 50 μL of the reaction solution was added to 100 μL of a methanol/acetonitrile=1/1 (v/v), mixed and centrifuged at 3000 rpm for 15 minutes. The test compound in the supernatant was quantified by LC/MS/MS, and a remaining amount of the test compound after the reaction was calculated, letting a compound amount at 0 minute reaction time to be 100%. Hydrolysis reaction was performed in the absence of NADPH and glucuronidation reaction was in the presence of 5 mM UDP-glucuronic acid in place of NADPH, followed by similar operations.
row,remaining rate [%],SMILES
1,94,CN1CCN(C(=O)c2cc3c([nH]2)C(O)CC3)CC1 (stereo not drawn) [Compound I-012]

# Same assay, conditions: test compound concentration 2 μmol/L, 30 minutes, 37° C.
row,remaining rate [%],SMILES
1,99,O=C(c1cc2c([nH]1)CCC(Cl)(Cl)C2O)N1CCNCC1 (stereo not drawn) [Compound I-073]

# System: not listed separately
# Assay: Metabolism stability test (rat)
# Type: in vitro ADME
# Conditions: test compound concentration 0.5 μmol/L, 30 minutes, 37° C.
row,remaining rate [%],SMILES
1,92,CN1CCN(C(=O)c2cc3c([nH]2)C(O)CC3)CC1 (stereo not drawn) [Compound I-012]

# Same assay, conditions: test compound concentration 2 μmol/L, 30 minutes, 37° C.
row,remaining rate [%],SMILES
1,79,O=C(c1cc2c([nH]1)CCC(Cl)(Cl)C2O)N1CCNCC1 (stereo not drawn) [Compound I-073]

# System: not listed separately
# Assay: Bioavailability (BA) test and total body clearance test
# Type: in vivo
# Conditions: plasma; rat; oral 1 mg/kg dosage
# Protocol: (1) Animal: mice or rats (2) Breeding conditions: mice and rats are allowed to freely take solid feed and sterilized tap water (3) Dose and grouping: orally or intravenously administered at a predetermined dose; grouping is as follows (Dose depends on the compound)
# Oral administration: 1 to 30 mg/kg (n=2 to 3)
# Intravenous administration: 0.5 to 10 mg/kg (n=2 to 3)
# (4) Preparation of dosing solution: for oral administration, in a solution or a suspension state; for intravenous administration, in a solubilized state (5) Administration method: in oral administration, forcedly administer into ventriculus with oral probe; in intravenous administration, administer from caudal vein with a needle-equipped syringe (6) Evaluation items: blood is collected over time, and the plasma concentration of drug is measured by LC/MS/MS (7) Statistical analysis: regarding the transition of the plasma concentration, the area under the plasma concentration-time curve (AUC) and total body clearance (Clt) are calculated by non-linear least squares program WinNonlin (Registered trademark), and the bioavailability (BA) is calculated from the AUCs of the oral administration group and intravenous administration group
# The following values show the rat BA of the compounds on oral 1 mg/kg dosage.
row,bioavailability [%],SMILES
1,59,O=C(c1cc2c([nH]1)CCC(Cl)(Cl)C2O)N1CCNCC1 (stereo not drawn) [Compound I-073]

# Same assay, conditions: rat, plasma, intravenous; read-out: Clt (total body clearance)
row,clearance [mL/min/kg],SMILES
1,24,O=C(c1cc2c([nH]1)CCC(Cl)(Cl)C2O)N1CCNCC1 (stereo not drawn) [Compound I-073]

# Molecular target: CYP3A4 (Homo sapiens, UniProt P08684)
# Sequence (P08684 whole entry): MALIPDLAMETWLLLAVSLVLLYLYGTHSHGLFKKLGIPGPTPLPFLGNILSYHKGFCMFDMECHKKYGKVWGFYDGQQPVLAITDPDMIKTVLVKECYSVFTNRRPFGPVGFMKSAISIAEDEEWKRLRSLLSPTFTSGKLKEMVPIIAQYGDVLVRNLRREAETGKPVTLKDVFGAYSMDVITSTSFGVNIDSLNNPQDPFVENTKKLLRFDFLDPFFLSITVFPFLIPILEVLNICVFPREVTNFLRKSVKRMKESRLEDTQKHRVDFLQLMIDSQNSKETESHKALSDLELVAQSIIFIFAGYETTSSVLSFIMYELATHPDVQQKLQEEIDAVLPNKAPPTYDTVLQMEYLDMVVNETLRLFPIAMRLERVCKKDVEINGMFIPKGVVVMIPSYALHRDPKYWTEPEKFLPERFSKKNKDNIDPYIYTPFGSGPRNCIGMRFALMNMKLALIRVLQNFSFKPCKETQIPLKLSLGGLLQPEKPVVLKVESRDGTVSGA
# Assay: CYP3A4 fluorescent MBI test
# Type: in vitro ADME
# Set-up: host or cells: Escherichia coli
# Conditions: prereaction 0 or 30 minutes; substrate 7-BFC; CYP3A4 expressed in Escherichia coli
# Protocol: The CYP3A4 fluorescent MBI test is a test of investigating enhancement of CYP3A4 inhibition of a compound by a metabolism reaction, and the test was performed using, as CYP3A4 enzyme expressed in Escherichia coli and employing, as an index, a reaction in which 7-benzyloxytrifluoromethylchmarin (BFC) is debenzylated by the CYP3A4 enzyme to produce a metabolite, 7-hydroxytrifluoromethylchmarin (HFC) emitting fluorescent light.
# The reaction conditions were as follows: substrate, 5.6 μmol/L 7-BFC; prereaction time, 0 or 30 minutes; reaction time, 15 minutes; reaction temperature, 25° C. […]
# An enzyme in a K-Pi buffer (pH 7.4) and a test drug solution as a pre-reaction solution were added to a 96-well plate at the composition of the pre-reaction, a part of it was transferred to another 96-well plate so that it was 1/10 diluted by a substrate in a K-Pi buffer, NADPH as a co-factor was added to initiate a reaction as an index (without preincubation) and, after a predetermined time of a reaction, acetonitrile/0.5 mol/L Tris(trishydroxyaminomethane)=4/1 was added to stop the reaction. […] For the plate on which each index reaction had been performed, a fluorescent value of 7-HFC which is a metabolite was measured with a fluorescent plate reader. […]
row,SMILES,CYP3A4 MBI: difference between IC50 values
1,CN1CCN(C(=O)c2cc3c([nH]2)CCC3O)CC1 (stereo not drawn) [Compound I-010],"(−) (when the difference is 3 μM or less, this was defined as (−))"

# Molecular target: T1, human HRH4 (Homo sapiens, UniProt Q9H3N8)
# T1 construct: purchased PerkinElmer
# Assay: Histamine H4 receptor binding test ([3H]-Histamine radioligand binding)
# Conditions: membrane fraction of CHO-K1 expressing human HRH4; [3H]-Histamine 15 nM; Ki by Cheng-Prusoff
# Protocol: Membrane fraction of CHO-K1 stably expressing human HRH4 was purchased from PerkinElmer. Radioligand binding assay was performed in 96 well polypropylene assay plates in a total assay volume of 150 μL. Membrane suspension (15 μg of protein) was mixed with [3H]-Histamine (PerkinElmer) at 15 nM and compounds at various concentration in 50 mM Tris-HCl pH7.4, 5 mM EDTA buffer. Assays were incubated for 60 min at room temperature, then the reactions were terminated by rapid filtration over 96-well GF/B filter plates (PerkinElmer) presoaked in 0.5% polyethyleneimine. Unbound radioactivity was eliminated by six times of wash with 350 μL of ice-cold 50 mM Tris pH7.4 buffer. When the filter plates were dried, Microscint-MS liquid scintillation fluid (PerkinElmer) was added to each well and retained radioactivity plates were counted in a Topcount liquid scintillation counter (PerkinElmer). Specific binding was calculated by subtracting non-specific binding determined in the presence of 100 μM unlabeled histamine from total count.
# The resulting data were analyzed for IC50 using the non-linear regression on XLfit.
# Affinity values (Ki) were then determined by Cheng-Prusoff equation.
row,SMILES,Ki [nM]
1,CNC1CCN(C(=O)c2cc3c([nH]2)CCCC3)C1 (stereo not drawn) [Compound I-003],680
2,O=C(c1cc2c([nH]1)CCCC2)N1CCNCC1 [Compound I-005],250
3,O=C(c1cc2c([nH]1)CCCC2)N1CC2CCCNC2C1 (stereo not drawn) [Compound I-006],230
4,O=C(c1nc2c([nH]1)CCCC2)N1CCNCC1 [Compound I-008],420
5,CC1CCCc2[nH]c(C(=O)N3CCN(C)CC3)cc21 (stereo not drawn) [Compound I-009],150
6,CN1CCN(C(=O)c2cc3c([nH]2)C(O)CC3)CC1 (stereo not drawn) [Compound I-012],680
7,CN1CCN(C(=O)c2cc3c([nH]2)CCCCC3)CC1 [Compound I-013],300
8,CC1CCc2[nH]c(C(=O)N3CCN(C)CC3)cc2C1 (stereo not drawn) [Compound I-015],86
9,CN1CCN(C(=O)c2cc3c([nH]2)CCC(=O)C3)CC1 [Compound I-016],370
10,CC1CCc2cc(C(=O)N3CCN(C)CC3)[nH]c2C1 (stereo not drawn) [Compound I-017],570
11,Cc1ccc(S(=O)(=O)OC2CCc3[nH]c(C(=O)N4CCN(C)CC4)cc3C2)cc1 (stereo not drawn) [Compound I-019],200
12,CN1CCN(C(=O)c2cc3c([nH]2)CCC(Cl)C3)CC1 (stereo not drawn) [Compound I-020],22
13,CN1CCN(C(=O)c2cc3c([nH]2)CCC=C3)CC1 [Compound I-021],120
14,CN1CCN(C(=O)c2cc3c([nH]2)CCC(C)(C)C3)CC1 [Compound I-022],70
15,COC1CCc2[nH]c(C(=O)N3CCN(C)CC3)cc2C1 (stereo not drawn) [Compound I-023],990
16,CN1CCN(C(=O)c2cc3c([nH]2)C(=O)CCC3)CC1 [Compound I-024],710
17,CC1CCCc2cc(C(=O)N3CCN(C)CC3)[nH]c21 (stereo not drawn) [Compound I-026],100
18,CN1CCN(C(=O)c2cc3c([nH]2)CCC(c2ccccc2)=C3)CC1 [Compound I-027],760
19,C#CC1=Cc2cc(C(=O)N3CCN(C)CC3)[nH]c2CC1 [Compound I-033],320
20,CN1CCN(C(=O)c2cc3c([nH]2)C(O)CCC3)CC1 (stereo not drawn) [Compound I-036],88
21,CN1CCN(C(=O)c2cc3c([nH]2)C(C)(O)CCC3)CC1 (stereo not drawn) [Compound I-040],180
22,CCC1(O)CCCc2cc(C(=O)N3CCN(C)CC3)[nH]c21 (stereo not drawn) [Compound I-041],590
23,CN1CCN(C(=O)c2cc3c([nH]2)CCC(C(F)(F)F)C3)CC1 (stereo not drawn) [Compound I-045],910
24,CN1CCN(C(=O)c2cc3c([nH]2)[C@H]2CC[C@@H]3C2)CC1 [Compound I-046],290
25,CN1CCN(C(=O)c2cc3c([nH]2)CCC(Cl)(Cl)C3)CC1 [Compound I-047],14
26,CN1CCN(C(=O)c2cc3c([nH]2)CCCC3)CC1 [Compound I-048],110
27,CN1CCN(C(=O)c2nc3c([nH]2)CCCC3)CC1 [Compound I-049],150
28,CN1CCN(C(=O)c2cc3c([nH]2)CCCC3O)CC1 (stereo not drawn) [Compound I-051],250
29,CN1CCN(C(=O)c2cc3c([nH]2)CCOC3)CC1 [Compound I-052],380

# Continued, values first:
row,Ki [nM],SMILES
1,140,CN1CCN(C(=O)c2cc3c([nH]2)CCC(F)C3O)CC1 (stereo not drawn) [Compound I-053]
2,230,CN1CCN(C(=O)c2cc3c([nH]2)CCC(F)(F)C3O)CC1 (stereo not drawn) [Compound I-054]
3,23,O=C(c1cc2c([nH]1)CCC(Cl)(Cl)C2)N1CCNCC1 [Compound I-055]
4,130,O=C(c1cc2c([nH]1)CCC(F)(F)C2)N1CCNCC1 [Compound I-056]
5,440,CN1CCN(C(=O)c2cc3c([nH]2)C(C)(O)CC3)CC1 (stereo not drawn) [Compound I-057]
6,270,CC(=O)n1c(C(=O)N2CCN(C)CC2)cc2c1CCCC2 [Compound I-059]
7,210,CC(C)C(=O)n1c(C(=O)N2CCN(C)CC2)cc2c1CCCC2 [Compound I-061]
8,260,O=C(c1cc2c([nH]1)CCCC2)N1C[C@H]2CCCN[C@H]2C1 [Compound I-062]
9,180,O=C(c1cc2c([nH]1)CCC(F)(F)C2O)N1C[C@H]2CCCN[C@H]2C1 (stereo partly drawn) [Compound I-064]
10,35,CN1CCN(C(=O)c2cc3c([nH]2)CC=C(F)C3)CC1 [Compound I-065]
11,350,CN1CCN(C(=O)c2cc3c([nH]2)CCC(Cl)(Cl)C3O)CC1 (stereo not drawn) [Compound I-066]
12,480,COC1c2cc(C(=O)N3CCNCC3)[nH]c2CCC1(Cl)Cl (stereo not drawn) [Compound I-067]
13,520,O=C(c1cc2c([nH]1)CCC(F)(F)C2O)N1CCN2CCCC2C1 (stereo not drawn) [Compound I-068]
14,220,COC1c2cc(C(=O)N3CCN(C)CC3)[nH]c2CCC1(Cl)Cl (stereo not drawn) [Compound I-069]
15,270,CCOC1c2cc(C(=O)N3C[C@H]4CCCN[C@H]4C3)[nH]c2CCC1(F)F (stereo partly drawn) [Compound I-070]
16,980,O=C(c1cc2c([nH]1)CCC(Cl)(Cl)C2O)N1CCNCC1 (stereo not drawn) [Compound I-073]
17,20,CN1CCN(C(=O)c2cc3c([nH]2)CC(O)CC3)CC1 (stereo not drawn) [Compound I-075]
18,25,CN1CCN(C(=O)c2cc3c([nH]2)CC(O)C(Cl)(Cl)C3)CC1 (stereo not drawn) [Compound I-076]
